Results: patent US20250255847A1, “[…]s: Novel Drugs for Triple Negative Breast Cancer” (SIMMARON RSEARCH INC, priority 2024, published 2025)

Assays:
[1] = system: MDA-MB-468 cells; experiment: TUNEL assay in MDA-MB-468 cells; assay type: cell-based, human; conditions: 25 nM
Procedure: FIG. 11 illustrates an embodiment of the present invention and illustrates SIM-1 and SIM-2 induced apoptosis in MDA-MB-468 TNBC cells, but not HMEC control cells. MDA-MB-468 cells were treated with increasing doses of (A) SIM-1 and (B) SIM-2 for 48 hrs followed by lactate dehydrogenase (LDH) release assay in the supernatants. The result was offset with cell-bound LDH and presented as a percent of DMSO control as discussed under method section. Half-maximal cytotoxicity or CT50 analyses were performed plotting maximum response as an index of increasing doses of (C) SIM-1 and (D) SIM-2. AnnexinV (green) and propidium iodide (red) dual-labeling were performed to evaluate apoptotic response in MDA-MB-468 cells once treated with increasing doses of (E) SIM-1 and (F) SIM-2 for 24 hrs. […] (H) The number of TUNEL bodies were counted as a percent of 100 cresyl violet-stained blue cells. Ten independent images were counted for the quantification study. Similarly, SIM-2 was assessed for (I) TUNEL and (J) subsequent quantification analyses. […]
This example provides a representative experiment that studies if SIM-1 and SIM-2 promoted the death of TNBC cells. […] During apoptosis, phosphatidyl serine of the plasma membrane flips from the inner to the outer membrane which can be detected by Annexin V labeling, whereas PI stains the nucleus of a cell with compromised integrity of the plasma membrane. […]

[2] = system: HMEC cells; experiment: Annexin V/PI staining in HMEC cells; assay type: cell-based; conditions: 25 nM
Procedure: FIG. 11 illustrates an embodiment of the present invention and illustrates SIM-1 and SIM-2 induced apoptosis in MDA-MB-468 TNBC cells, but not HMEC control cells. MDA-MB-468 cells were treated with increasing doses of (A) SIM-1 and (B) SIM-2 for 48 hrs followed by lactate dehydrogenase (LDH) release assay in the supernatants. The result was offset with cell-bound LDH and presented as a percent of DMSO control as discussed under method section. Half-maximal cytotoxicity or CT50 analyses were performed plotting maximum response as an index of increasing doses of (C) SIM-1 and (D) SIM-2. AnnexinV (green) and propidium iodide (red) dual-labeling were performed to evaluate apoptotic response in MDA-MB-468 cells once treated with increasing doses of (E) SIM-1 and (F) SIM-2 for 24 hrs. Nuclei were stained with DAPI. TUNEL assay was performed in MDA-MB-468 cells after treatment with 25 nM of (G) SIM-1. Brown-colored TUNEL bodies were visualized at cresyl violet-stained blue nuclei. (H) The number of TUNEL bodies were counted as a percent of 100 cresyl violet-stained blue cells. Ten independent images were counted for the quantification study. Similarly, SIM-2 was assessed for (I) TUNEL and (J) subsequent quantification analyses. One-way ANOVA was performed to test the significance of mean between groups at **p<0.01 and ****p<0.0001. […]

[3] = system: STAT3-dependent tumor-promoting genes; experiment: Gene array of 66 STAT3-dependent tumor-promoting genes in PDX tumors; assay type: in vivo, mouse; conditions: tumor tissue; for number of the 66 STAT3-dependent genes strongly downregulated: out of 66 genes
Procedure: FIG. 15 illustrates an embodiment of the present invention and illustrates SIM 1 and 2 inhibited Y705P phosphorylation of STAT3 and the expressions of STAT3-dependent tumor supportive genes. (A) DAB immunostaining of Y705P STAT3 in tumor parenchyma of all three groups. (B) Quantitative analysis of Y705P STAT3-ir cells was performed by counting Y705P STAT3 cells in 15 different images, converting into a percent scale, and then plotting in a scatter histogram. On-way ANOVA followed by multiple comparison test indicated ****p<0.0001 versus control. (C) DAB immunostaining of S727P STAT3 followed by a (D) quantitative analysis of S727P STAT3-ir cells was performed in 15 different images and then plotted as a percent of total cells by a scatter histogram. On-way ANOVA represents no significance (NS) between groups. (E) Immunoblot analyses of Y705PSTAT3 (Rabbit […] antibody Cat #710093; Invitrogen), S727PSTAT3 (Mouse 1° antibody cat #MA5-15208; Invitrogen) followed by normalization with loading control β-actin (Mouse 1° antibody cat #MA1-744; Invitrogen). (F) A cDNA-based gene array of 66 STAT3-dependent tumor promoting genes were analyzed in TNBC tumors of vehicle-, SIM-1-, and SIM-2-treated mice. (G) A scatter plot summarized the gene array results. Based on the relative levels of expressions, gene levels were classified as low, moderate, and highly expressed. Results are confirmed after three different experiments.
These genes include anti-apoptotic genes such as bcl-2, survivin, and bcl-xl; cell cycle progression markers such as cyclin D1, akt, and p21.

Compound: O=C(O)CCC(=O)NCc1csc2ccc(Cl)cc12 [SIM-1, 4-[(5-chloro-1-benzothiophen-3-yl)methylamino]-4-oxobutanoic acid]
- TUNEL response [1]: strongly induced
- apoptosis in healthy normal cells (annexin V/PI) [2]: unable to induce apoptosis
- number of the 66 STAT3-dependent genes strongly downregulated [3]: 55
- tumor growth suppressor gene p53 expression [3]: significantly upregulated

Compound: CCOC(=O)c1c(NC(C)=O)sc2c(Cl)c(/C=N/O)ccc12 [SIM-2, ethyl 2-acetamido-7-chloro-6-(hydroxyiminomethyl)-1-benzothiophene-3-carboxylate]
- TUNEL response [1]: strongly induced
- apoptosis in healthy normal cells (annexin V/PI) [2]: unable to induce apoptosis
- number of the 66 STAT3-dependent genes strongly downregulated [3]: 55
- tumor growth suppressor gene p53 expression [3]: significantly upregulated
